Experimental data taken from ChEMBL document CHEMBL1909046, “DrugMatrix in vitro pharmacology data”.

Tests used:
[1] = biological target: Tyrosine-protein kinase Fyn (Homo sapiens, UniProt P06241); test: biochemical; assay type: cell-based, Insect cells; details: insect cells;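 further: enzymatic inhibition of Fyn kinase activity measured with Poly(Glu:Tyr) as the phosphorylation substrate; in other assays of this panel Not Active means under 50% inhibition at 10 µM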
[2] = biological target: T1, Muscarinic acetylcholine receptor M5 (Homo sapiens, UniProt P08912); assay type: cell membranes, CHO-K1, Membrane; details: cho-k1; further: in other assays of this panel Not Active means under 50% inhibition at 10 µM
T1 sequence (P08912 whole entry): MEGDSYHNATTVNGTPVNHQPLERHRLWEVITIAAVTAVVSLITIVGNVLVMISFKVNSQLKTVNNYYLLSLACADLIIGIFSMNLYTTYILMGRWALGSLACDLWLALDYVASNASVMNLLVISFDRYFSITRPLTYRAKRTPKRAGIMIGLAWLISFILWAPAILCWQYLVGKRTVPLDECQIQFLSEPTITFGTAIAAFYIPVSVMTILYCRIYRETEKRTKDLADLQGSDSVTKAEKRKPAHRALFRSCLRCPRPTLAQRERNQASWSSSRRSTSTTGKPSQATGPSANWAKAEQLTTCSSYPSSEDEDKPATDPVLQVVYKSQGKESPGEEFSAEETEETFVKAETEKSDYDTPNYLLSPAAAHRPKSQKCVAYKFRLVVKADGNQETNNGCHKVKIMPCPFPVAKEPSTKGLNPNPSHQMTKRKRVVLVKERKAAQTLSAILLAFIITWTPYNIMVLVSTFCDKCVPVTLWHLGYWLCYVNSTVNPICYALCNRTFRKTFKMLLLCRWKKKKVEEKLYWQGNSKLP

[3] = DRUGMATRIX: GABAA, Chloride Channel, TBOB radioligand binding (ligand: [3H] TBOB); assay type: cell membranes, Rattus norvegicus, Wistar, Cerebral cortex, Membrane; details: Not Active = under 50% inhibition at 10 µM
[4] = biological target: Kappa-type opioid receptor (Homo sapiens, UniProt P41145); test: DRUGMATRIX: Opiate kappa (OP2, KOP) radioligand binding (ligand: [3H] Diprenorphine); assay type: cell membranes, HEK293, Membrane; details: hek293; Not Active = under 50% inhibition at 10 µM
Kappa-type opioid receptor, sequence (P41145 whole entry): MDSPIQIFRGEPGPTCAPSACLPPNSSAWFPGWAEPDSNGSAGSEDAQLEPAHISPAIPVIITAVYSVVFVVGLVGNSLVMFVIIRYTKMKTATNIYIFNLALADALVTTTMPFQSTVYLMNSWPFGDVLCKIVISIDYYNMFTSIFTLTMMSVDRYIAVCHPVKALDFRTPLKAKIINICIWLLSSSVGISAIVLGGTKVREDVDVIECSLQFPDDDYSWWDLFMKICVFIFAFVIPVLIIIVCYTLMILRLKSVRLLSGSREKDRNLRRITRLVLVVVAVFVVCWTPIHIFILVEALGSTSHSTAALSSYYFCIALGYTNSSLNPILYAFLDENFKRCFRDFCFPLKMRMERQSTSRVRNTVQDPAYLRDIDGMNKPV

[5] = biological target: T2, 5-hydroxytryptamine receptor 1A (Rattus norvegicus, UniProt P19327); assay type: cell membranes, CHO-K1, Membrane; details: cho-k1; further: in other assays of this panel Not Active means under 50% inhibition at 10 µM
T2 sequence (P19327 whole entry): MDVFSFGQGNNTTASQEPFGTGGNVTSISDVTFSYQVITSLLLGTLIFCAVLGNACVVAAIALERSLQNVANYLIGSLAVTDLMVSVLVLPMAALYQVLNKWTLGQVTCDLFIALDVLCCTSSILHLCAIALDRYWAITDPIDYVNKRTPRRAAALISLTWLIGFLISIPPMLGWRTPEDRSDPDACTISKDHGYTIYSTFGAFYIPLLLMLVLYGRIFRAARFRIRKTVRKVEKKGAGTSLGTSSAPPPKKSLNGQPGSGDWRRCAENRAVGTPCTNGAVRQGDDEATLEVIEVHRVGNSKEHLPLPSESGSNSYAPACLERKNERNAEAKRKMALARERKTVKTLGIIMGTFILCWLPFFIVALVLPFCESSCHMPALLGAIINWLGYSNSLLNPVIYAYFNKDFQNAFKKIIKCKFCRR

[6] = biological target: Melanocortin receptor 3 (Homo sapiens, UniProt P41968); assay type: cell membranes, Membrane; details: hek293; further: in other assays of this panel Not Active means under 50% inhibition at 10 µM
Melanocortin receptor 3, sequence (P41968 whole entry): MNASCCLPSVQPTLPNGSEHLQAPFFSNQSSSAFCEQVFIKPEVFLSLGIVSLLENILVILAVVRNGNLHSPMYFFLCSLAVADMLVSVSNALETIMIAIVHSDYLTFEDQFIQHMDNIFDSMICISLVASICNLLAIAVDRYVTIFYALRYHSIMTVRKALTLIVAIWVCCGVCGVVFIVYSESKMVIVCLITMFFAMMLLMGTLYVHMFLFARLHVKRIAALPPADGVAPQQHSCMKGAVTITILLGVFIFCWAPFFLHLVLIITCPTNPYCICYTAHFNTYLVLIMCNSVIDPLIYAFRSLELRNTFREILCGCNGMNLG

[7] = biological target: T3, Adenosine receptor A3 (Homo sapiens, UniProt P0DMS8); assay type: cell membranes, CHO-K1, Membrane; details: cho-k1
T3 sequence (P0DMS8 whole entry): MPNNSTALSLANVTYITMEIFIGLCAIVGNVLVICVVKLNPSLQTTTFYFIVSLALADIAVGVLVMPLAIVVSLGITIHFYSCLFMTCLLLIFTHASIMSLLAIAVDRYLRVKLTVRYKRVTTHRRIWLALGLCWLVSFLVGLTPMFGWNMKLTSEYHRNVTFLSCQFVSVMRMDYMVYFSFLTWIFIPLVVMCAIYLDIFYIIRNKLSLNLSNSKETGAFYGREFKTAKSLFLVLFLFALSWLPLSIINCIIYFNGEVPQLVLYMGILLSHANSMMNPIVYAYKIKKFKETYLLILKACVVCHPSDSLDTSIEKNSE

[8] = DRUGMATRIX: ATPase, Na+/K+ enzyme inhibition (substrate: ATP); assay type: tissue-based, Sus scrofa, Heart; details: Not Active = under 50% inhibition at 10 µM
[9] = biological target: Beta-2 adrenergic receptor (Homo sapiens, UniProt P07550); test: DRUGMATRIX: Adrenergic beta2 radioligand binding (ligand: [3H] CGP-12177); assay type: cell membranes, Membrane; details: cho; Not Active = under 50% inhibition at 10 µM
Beta-2 adrenergic receptor, sequence (P07550 whole entry): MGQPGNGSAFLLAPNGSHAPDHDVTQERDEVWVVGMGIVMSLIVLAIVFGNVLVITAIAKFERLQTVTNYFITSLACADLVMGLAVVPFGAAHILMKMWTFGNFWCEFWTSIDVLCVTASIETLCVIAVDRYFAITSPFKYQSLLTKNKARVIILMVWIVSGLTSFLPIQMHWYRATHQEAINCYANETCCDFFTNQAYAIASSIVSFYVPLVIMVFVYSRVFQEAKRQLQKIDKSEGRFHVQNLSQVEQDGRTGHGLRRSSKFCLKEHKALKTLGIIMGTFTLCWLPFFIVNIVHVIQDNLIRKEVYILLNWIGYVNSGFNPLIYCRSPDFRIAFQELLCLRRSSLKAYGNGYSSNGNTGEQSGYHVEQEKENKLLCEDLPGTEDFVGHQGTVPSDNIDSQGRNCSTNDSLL

[10] = biological target: T4, Cysteinyl leukotriene receptor 1 (Homo sapiens, UniProt Q9Y271); assay type: cell membranes, CHO-K1, Membrane; details: cho-k1; further: in other assays of this panel Not Active means under 50% inhibition at 10 µM
T4 sequence (Q9Y271 whole entry): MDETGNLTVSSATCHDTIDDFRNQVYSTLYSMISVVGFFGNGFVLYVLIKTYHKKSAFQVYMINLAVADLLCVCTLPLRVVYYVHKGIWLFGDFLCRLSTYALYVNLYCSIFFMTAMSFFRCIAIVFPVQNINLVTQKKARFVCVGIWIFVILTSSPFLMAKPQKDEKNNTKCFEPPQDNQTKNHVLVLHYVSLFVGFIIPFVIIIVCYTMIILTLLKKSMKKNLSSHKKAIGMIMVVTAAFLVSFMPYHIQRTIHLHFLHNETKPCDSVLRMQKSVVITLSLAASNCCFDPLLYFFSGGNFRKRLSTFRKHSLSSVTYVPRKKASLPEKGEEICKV

[11] = DRUGMATRIX: Potassium Channel [KATP] radioligand binding (ligand: [3H] Glyburide); assay type: cell membranes, Membrane; details: hit-t15; Not Active = under 50% inhibition at 10 µM
[12] = biological target: Carbonic anhydrase 2 (Homo sapiens, UniProt P00918); test: DRUGMATRIX: Carbonic Anhydrase II enzyme inhibition (substrate: 4-Nitrophenyl acetate (4-NPA)); assay type: tissue-based, Erythrocyte; details: erythrocyte; Not Active = under 50% inhibition at 10 µM
[13] = biological target: Vascular endothelial growth factor receptor 1 (Homo sapiens, UniProt P17948); assay type: cell-based; details: huvec; further: in other assays of this panel Not Active means under 50% inhibition at 10 µM
Vascular endothelial growth factor receptor 1, sequence (P17948 whole entry): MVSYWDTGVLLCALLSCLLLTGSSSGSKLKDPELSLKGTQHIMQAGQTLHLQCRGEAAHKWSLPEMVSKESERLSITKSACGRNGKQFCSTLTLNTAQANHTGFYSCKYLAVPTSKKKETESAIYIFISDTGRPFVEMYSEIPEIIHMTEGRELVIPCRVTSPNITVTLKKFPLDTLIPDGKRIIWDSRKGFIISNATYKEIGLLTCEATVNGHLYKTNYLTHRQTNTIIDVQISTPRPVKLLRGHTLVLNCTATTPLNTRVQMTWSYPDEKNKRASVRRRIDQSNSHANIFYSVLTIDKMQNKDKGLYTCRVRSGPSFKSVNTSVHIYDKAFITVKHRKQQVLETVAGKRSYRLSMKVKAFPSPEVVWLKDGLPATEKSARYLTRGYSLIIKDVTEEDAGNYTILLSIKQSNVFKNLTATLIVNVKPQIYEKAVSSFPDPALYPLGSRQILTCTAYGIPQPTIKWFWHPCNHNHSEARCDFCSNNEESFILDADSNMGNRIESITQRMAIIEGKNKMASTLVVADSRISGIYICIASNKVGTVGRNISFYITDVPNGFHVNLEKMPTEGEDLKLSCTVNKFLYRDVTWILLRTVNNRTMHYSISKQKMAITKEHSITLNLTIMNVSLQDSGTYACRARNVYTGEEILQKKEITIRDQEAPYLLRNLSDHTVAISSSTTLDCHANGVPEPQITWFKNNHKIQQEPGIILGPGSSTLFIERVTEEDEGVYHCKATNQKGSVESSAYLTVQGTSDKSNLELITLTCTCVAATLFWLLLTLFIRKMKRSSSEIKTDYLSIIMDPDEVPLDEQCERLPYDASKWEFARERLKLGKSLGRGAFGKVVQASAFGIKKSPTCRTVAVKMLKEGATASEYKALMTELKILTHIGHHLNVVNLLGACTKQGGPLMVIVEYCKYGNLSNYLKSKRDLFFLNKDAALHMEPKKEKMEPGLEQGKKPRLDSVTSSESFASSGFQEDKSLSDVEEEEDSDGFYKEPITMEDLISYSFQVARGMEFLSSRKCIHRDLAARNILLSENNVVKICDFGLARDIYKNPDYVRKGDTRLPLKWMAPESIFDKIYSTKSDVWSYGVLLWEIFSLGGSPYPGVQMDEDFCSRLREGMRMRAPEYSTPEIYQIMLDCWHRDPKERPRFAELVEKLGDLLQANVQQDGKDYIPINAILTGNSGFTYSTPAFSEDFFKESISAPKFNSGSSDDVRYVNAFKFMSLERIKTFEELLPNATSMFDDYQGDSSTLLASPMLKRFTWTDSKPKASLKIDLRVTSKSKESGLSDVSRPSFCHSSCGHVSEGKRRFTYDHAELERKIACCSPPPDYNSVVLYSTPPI

[14] = DRUGMATRIX: Phosphodiesterase PDE3 enzyme inhibition (substrate: [3H]cAMP + cAMP); assay type: tissue-based, Homo sapiens; details: platelet; Not Active = under 50% inhibition at 10 µM
[15] = biological target: Aldo-keto reductase family 1 member B1 (Rattus norvegicus, UniProt P07943); assay type: tissue-based, Lens of camera-type eye
[16] = biological target: Protein kinase C alpha type (Homo sapiens, UniProt P17252); assay type: cell-based; details: sf9
[17] = biological target: T5, Leukotriene C4 synthase (Cavia porcellus, UniProt A6XA80); test: biochemical; assay type: tissue-based, Lung
T5 sequence (A6XA80 whole entry): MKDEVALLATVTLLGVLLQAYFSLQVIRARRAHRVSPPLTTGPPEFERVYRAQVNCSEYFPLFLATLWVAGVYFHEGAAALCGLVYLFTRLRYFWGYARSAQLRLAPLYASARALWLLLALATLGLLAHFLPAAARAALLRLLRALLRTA

Tyrosine-protein kinase Fyn, sequence (P06241 whole entry): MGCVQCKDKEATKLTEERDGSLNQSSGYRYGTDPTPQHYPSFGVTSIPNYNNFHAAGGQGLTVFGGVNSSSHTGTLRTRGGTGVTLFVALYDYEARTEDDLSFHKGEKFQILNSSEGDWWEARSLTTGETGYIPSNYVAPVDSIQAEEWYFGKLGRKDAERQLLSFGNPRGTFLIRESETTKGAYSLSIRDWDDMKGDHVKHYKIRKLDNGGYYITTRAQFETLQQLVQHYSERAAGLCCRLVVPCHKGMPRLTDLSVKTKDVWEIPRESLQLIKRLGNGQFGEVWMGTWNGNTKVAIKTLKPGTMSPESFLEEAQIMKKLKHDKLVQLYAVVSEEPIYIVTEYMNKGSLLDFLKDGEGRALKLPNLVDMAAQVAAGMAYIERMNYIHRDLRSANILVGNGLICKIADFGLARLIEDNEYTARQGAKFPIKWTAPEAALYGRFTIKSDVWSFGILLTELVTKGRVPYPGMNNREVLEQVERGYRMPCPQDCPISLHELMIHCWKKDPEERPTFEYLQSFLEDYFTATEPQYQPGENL

NC(=O)c1ncn([C@@H]2O[C@H](CO)[C@@H](O)[C@H]2O)n1 [RIBAVIRIN]
Not Active: IC50 [1] | IC50 [2] | IC50 [3] | Ki [3] | IC50 [4] | IC50 [5] | IC50 [6] | IC50 [7] | IC50 [8] | Ki [8] | IC50 [9] | IC50 [10] | IC50 [11] | Ki [11] | IC50 [12] | IC50 [13] | IC50 [14] | Ki [14] | IC50 [15] | IC50 [16] | IC50 [17]

CC[C@H]1OC(=O)[C@H](C)[C@@H](O[C@H]2C[C@@](C)(OC)[C@@H](O)[C@H](C)O2)[C@H](C)[C@@H](O[C@@H]2O[C@H](C)C[C@H](N(C)C)[C@H]2O)[C@](C)(O)C[C@@H](C)/C(=N\OCOCCOC)[C@H](C)[C@@H](O)[C@]1(C)O [ROXITHROMYCIN]
Not Active: IC50 [1] | IC50 [2] | IC50 [3] | Ki [3] | IC50 [4] | IC50 [5] | IC50 [6] | IC50 [7] | IC50 [8] | Ki [8] | IC50 [9] | IC50 [10] | IC50 [11] | Ki [11] | IC50 [12] | IC50 [13] | IC50 [14] | Ki [14] | IC50 [15] | IC50 [16] | IC50 [17]

NC(=O)c1ccccc1O [SALICYLAMIDE]
Not Active: IC50 [1] | IC50 [2] | IC50 [3] | Ki [3] | IC50 [4] | IC50 [5] | IC50 [6] | IC50 [7] | IC50 [8] | Ki [8] | IC50 [9] | IC50 [10] | IC50 [11] | Ki [11] | IC50 [12] | IC50 [13] | IC50 [14] | Ki [14] | IC50 [15] | IC50 [16] | IC50 [17]

Cc1ncc([N+](=O)[O-])n1CC(C)O (centres undefined) [SECNIDAZOLE]
Not Active: IC50 [1] | IC50 [2] | IC50 [3] | Ki [3] | IC50 [4] | IC50 [5] | IC50 [6] | IC50 [7] | IC50 [8] | Ki [8] | IC50 [9] | IC50 [10] | IC50 [11] | Ki [11] | IC50 [12] | IC50 [13] | IC50 [14] | Ki [14] | IC50 [15] | IC50 [16] | IC50 [17]
